The text below walks through data of patent US20080027140A1, “Combinations of Serotonin Reuptake Inhibitors and Imidazoline I 2 Agonists” (MERCK PATENT GMBH, priority 2004, published 2008).

Experiment [1] relates to extracellular 5-HT level in the frontal cortex. The experiment in a line: Microdialysis studies: extracellular 5-HT level in the frontal cortex of rats. Type of experiment: in vivo.
For a further experiment, the system named is mice. The experiment in a line: Marble burying test (animal model of anxiety states). The class given is in vivo. The conditions noted are these: 3 mg/kg subcutaneously each substance, individually or combined at the same dose; 30 minutes test; FIG. 3. The method, then:
A typical animal model of anxiety states is the “marble burying test” (for example Njung'e and Handley, Br J Pharmacol 1991, 104: 105-112), which has, in particular, specificity for obsessive-compulsive disorders and obsessive-compulsive spectrum disorders. The experimental device consists of a cube-shaped box open at the top in which 25 clear glass marbles are arranged at uniform separations on a 5 cm deep layer of sawdust. Mice are placed individually in the test box for 30 minutes. The number of marbles buried in the sawdust during the test duration of 30 minutes serves as a measure of anxiety. Untreated mice bury the most marbles in the sawdust, anxiolytics reduce the number of buried marbles.

For the next experiment, the system named is rats. Briefly: Forced swimming test (animal model of depression). Type of experiment: in vivo. The method, then:
A typical animal model of depression is the “forced swimming test” (R. D. Porsolt et al., Nature 1977; 266(5604): 730-732), which is carried out with rats. This model is based on the behaviour known as “behavioural despair”, which the animals show in a hopeless situation known to them: If the rats are placed in a water-filled vessel (usually for 15 minutes) from which they cannot escape, they cease their attempts to escape from the situation after a certain time and remain in immobility or make only the most necessary swimming movements. If the rats are subjected to this situation again the next day, they recognise the hopelessness of the situation and remain in immobility for the majority of the time, and the time which the animals spend in immobility (which is regarded as surrogate for depression) during the 5-minute test duration serves as a measure of the depression. Anti-depressants shorten this immobility time. Fluoxetine (5 mg/kg perorally) and 2-BFI (3 and 10 mg/kg perorally) are administered—individually or combined—either in accordance with a repeated acute scheme (fluoxetine 24 h, 5 h and 2 h; 2-BFI 24 h, 5 h and 1 h before commencement of the test) or in accordance with a subchronic scheme (fluoxetine or 2-BFI once daily for 7 days, on the final day fluoxetine 2 h and 2-BFI 1 h before commencement of the test).

Experiment [2] has as its system extracellular level of serotonin (5-HT) in the brain. As to conditions: fluoxetine alone, even at a relatively high dose; literature (Artigas et al.); cited from earlier work.

SMILES strings stand for the structures. “Also recorded” adds a separate entry of the source.

For `c1ccc2oc(C3=NCCN3)cc2c1` [2-BFI, 2-(2-benzofuranyl)-2-imidazoline], the “effect on the extracellular 5-HT level in the frontal cortex” value in experiment [1] (2-BFI alone, 20 mg/kg subcutaneously, FIG. 1) is on record as “no effect”. For the same compound, in the experiment with mice, the “number of buried marbles compared with vehicle-treated mice” value is “reduced the number of buried marbles only slightly”. Besides, the immobility phase entry in the experiment on rats (repeated acute scheme, 2-BFI alone 3 and 10 mg/kg perorally, 24 h, 5 h and 1 h before test, FIG. 4) was “does not reduce the immobility phase”; in the experiment with rats (subchronic scheme, once daily for 7 days, 2-BFI alone 3 and 10 mg/kg perorally, FIG. 5) it was “Virtually identical effects”.
`CNCCC(Oc1ccc(C(F)(F)F)cc1)c1ccccc1` (stereo not drawn) [fluoxetine]: in experiment [1] (fluoxetine alone, 10 mg/kg intraperitoneally, FIG. 2, 10 mg/kg), the “effect on the extracellular 5-HT level” value was “slightly raises; also recorded: only a slight increase”. In addition, the “number of buried marbles compared with vehicle-treated mice” value in the experiment with mice is reported as “reduced the number of buried marbles only slightly”. In addition, the immobility phase result in the experiment with rats (repeated acute scheme, fluoxetine alone 5 mg/kg perorally, 24 h, 5 h and 2 h before test, FIG. 4) is recorded as “only a negligible effect”; in the experiment with rats (subchronic scheme, once daily for 7 days, fluoxetine alone 5 mg/kg perorally, FIG. 5), “Virtually identical effects”. The “approximately three-fold increase of the extracellular 5-HT level” value in experiment [2] is “cannot be achieved”.
